Read-outs that look alike come from different tables or passages of the source.
Key:
Plasmodium falciparum W2 = conditions: in vitro; cited from earlier work
malaria = conditions: mice infected with malaria; 4-day successive treatment, peritoneal administration 5 mg/kg/day; cited from earlier work
[1] = system: Plasmodium Falciparum K1 strain; assay: in vitro growth-inhibiting screening assay, chloroquine-resistant falciparum malaria; assay type: cell-based
Protocol: Plasmodium Falciparum K1 strain was used as a chloroquine-resistant protozoa of falciparum malaria. RMI-1640 sterilized by filtration was supplemented with human serum of a final concentration of 5% to be used as a culture medium. The malaria protozoa were cultured under O2 concentration of 3%, CO2 concentration of 4%, N2 concentration of 93% at 37° C.
A test sample was prepared by dissolving the test compounds according to the present invention and a positive control drug (chloroquine) in DMSO to a predetermined concentration. The erythrocytes infected with the cultured malaria protozoa were collected by centrifugation and so diluted with non-infected erythrocytes to have an initial infection ratio of 0.15%. The hematocrit value was then 2.5%. Culture mixture of the above malaria-infection culture medium (200 μL) was placed into each well of a 96-well culture plate, and the test sample comprising the predetermined amount of the test compound, and DMSO without the test compound were added to the wells in duplicate.
After culture for 48 hours at 37° C., hypoxanthine labeled with radioactive tritium (^3H) of 0.5 μCi was added to each well. After the culture in the same conditions for further 24 hours, the sample was taken on a glass fiber filter and washed with distilled water. Intensity of radiation was measured by means of plate liquid scintillation counter (Wallac Co.), and an infection ratio of the protozoa of malaria was calculated with respect to a group treated with the test sample and the control. A growth-inhibiting ratio was then calculated from the resulting infection ratio in accordance with the following equation to determine 50% growth-inhibiting concentration (EC50).
Growth-inhibiting ratio (%)=[1−(b−a)/(c−a)]×100 • a: Initial infection ratio; • b: Infection ratio of the test sample group; and • c: Infection ratio of the control group. In vitro Growth-Inhibiting Assay of Rat L6 Cells
Anti-malaria effect of the samples was assessed by their EC50 values for the chloroquine-resistant protozoa of falciparum malaria and the rat L6 cell. A chemotherapy coefficient, which is used as an index for the selective toxicity for the chloroquine-resistant protozoa of falciparum malaria was calculated by the following equation, and the pharmaceutical effect was determined.
Chemotherapy coefficient=(EC50 value of the test sample for rat L6 cell)/(EC50 value of the test sample for the chloroquine-resistant protozoa of falciparum malaria)

[2] = system: Plasmodium berghei NK65 strain; assay: in vivo 4-day suppressive test, intraperitoneal administration, mouse infected with malaria; conditions: 4 days
Protocol: This test was carried out in accordance with 4-day suppressive test that is a general in vivo test for the activity of an anti-malaria compound. Rodent malaria protozoa (Plasmodium berghei NK65 strain) were used in this test. Infected blood was prepared by infection with intraperitoneal administration into ICR male mouse (5 weeks age; SPF) and passage culture (subculture) thereafter. Blood was drawn from the vein of a tail of the moue infected with malaria, and its infection ratio was determined. After it was confirmed that the infection ratio had been increased up to an appropriated level (10˜20%), the blood infected with malaria was drawn from the heart of the mouse. The infection ratio and number (cells/mL) of erythrocytes were determined. An uninfected mouse (ICR male, 5 weeks age) was then infected with an injection of the infected erythrocytes so diluted with PBS as to comprise the protozoa of […] per dose (0.2 mL) into the vein of its tail.
A test sample was prepared by dissolving the test compounds according to the present invention into physiologic saline (Otsuka Pharmaceuticals Industries) to a predetermined concentration. In the case where the compound was insoluble in water, it was dissolved into DMSO or Tween 20 to prepare the test sample. A control group (no drug-administration group) was treated only with physiologic saline. […]
One group consisted of five mice. The intraperitoneal administration of the test sample started after two hours from the infection with malaria and continued for successive 4 days with a 24-hour interval. After 24 hours from the last administration, blood was drawn from the tail of the infected mouse to prepare a thin-layer smear, and the number of the erythrocytes infected with the malaria protozoa under a microscope with respect to the control group and the test sample groups. Parasitemia, i.e., the infection ratio with the malaria protozoa, was obtained by calculating an average value of the medium three mice except the two mice showing a maximum or minimum inhibition level. A cure rate (suppression) was then calculated from the resulting parasitemia in accordance with the following equation.
Cure rate: suppression (%)=(b−a)/b×100 • a: Infection ratio of the test sample group; and • b: Infection ratio of the control group.

[3] = system: Rat L6 cell (rat skeletal myoblast cell); assay: in vitro growth-inhibiting assay of rat L6 cells; assay type: cell-based
Protocol: Rat L6 cell (rat skeletal myoblast cell) was cultured in RPMI-1640 culture medium supplemented with 1% of L-glutamine (200 mM) and fetal calf serum (10%) under 5% CO2 concentration at 37° C. A test sample was prepared by dissolving the test compounds according to the present invention and a positive control drug in DMSO to a predetermined concentration. After pre-culture had been finished, the culture medium containing the cells in a logarithmic phase was placed into each well of a 96-well culture plate, and the test sample comprising the predetermined amount of the test compound, and DMSO without the test compound were added to the wells in duplicate.
After incubation of the culture plate for 72 hours in an incubator, a growth-inhibiting activity was assayed as follows. Alamar Blue aqueous solution (10 μL) was added to each well followed by a further two-hour culture. The culture plate was then attached to a fluorescence micro titer plate reader (Spectramax Gemeni XS; U.S. Molecular Device Co.), and the intensity of fluorescence at 588 nm was detected with an excitation wave length of 536 nm. A residual ratio of L6 cells was calculated with respect to a group treated with the test sample and a control group. A growth-inhibiting ratio for L6 cells was then calculated from the resulting residual ratio in accordance with the following equation to determine 50% growth-inhibiting concentration (EC50).
Growth-inhibiting ratio (%)=[1−(C−A)/(B−A)]×100 • A: Initial number of cells; • B: Number of the cells in the control after 3 days; and • C: Number of the cells treated with the test sample after 3 days Determination of Pharmaceutical effect for Chloroquine-Resistant Malaria

[4] = system: Leishmania donovani (MHOM/ET/67/L82 strain); assay: in vitro growth-inhibiting screening assay, protozoa of Leishmaniasis; assay type: cell-based; conditions: Leishmania donovani; amastigotes; 72 h, Alamar Blue; read-out: growth-inhibiting concentration (nM) Leishmania donovani
Protocol: This test was done using the protozoa of Leishmania donovani (MHOM/ET/67/L82 strain). The protozoa were subcultured using Syrian Golden hamster and an amastigote was obtained therefrom. The amastigotes were cultured in SM medium supplemented with 10% of heat-treated fetal calf serum (pH 5.4) under CO2 concentration of 5%, at 37° C.
A test sample was prepared by dissolving the test compounds according to the present invention and a positive control drug (Miltefosine) in DMSO to a predetermined concentration. Culture medium containing a predetermined number of the protozoa was added into each well of a 96-well culture plate, and the concentration of the amastigotes was measured by means of CASY cell analysis system (Dermany, Scharfe Co.). Test sample comprising the predetermined amount of the test compound, and DMSO without the test compound were added to the wells in duplicate.
After incubation of the culture plate for 72 hours in an incubator, a growth-inhibiting activity was assayed as follows. Alamar Blue aqueous solution (10 μL) was added to each well followed by a further two-hour culture. The culture plate was then attached to a fluorescence micro titer plate reader (Spectramax Gemeni XS; U.S. Molecular device Co.), the intensity of fluorescence at 588 nm was detected with excitation wave length of 536 nm to calculate an infection ratio of the protozoa with respect to a group trated with the test sample and a control group. A growth-inhibiting ratio was then calculated from the resulting infection ratio in accordance with the following equation to determine 50% growth-inhibiting concentration (EC50).
(§1) Growth-inhibiting ratio (%)=[1−(b−a)/(c−a)]×100 • a: Initial infection ratio; • b: Infection ratio of the test sample group; and • c: Infection ratio of the control group.
A selective toxicity coefficient, which is used as an index for the selective toxicity for the protozoa of Leishmaniasis, was calculated by the following equation, and the pharmaceutical effect was determined.
A selective toxicity coefficient=(EC50 value of the test sample for rat L6 cell)/(EC50 value of the test sample for the protozoa of Leishmaniasis).

[5] = system: Trypanosoma cruzi (Tulahuen C2C4 strain); assay: in vitro growth-inhibiting screening assay, protozoa of American trypanosomiasis; assay type: cell-based; conditions: Trypanosoma cruzi, TULAHUEN; in infected rat L6 cells; 96 h, CPRG/Nonidet; read-out: 50% growth-inhibiting concentration (nM) Trypanosoma cruzi
Protocol: The test was done using a trypomastigote and an amastigote of the protozoa of Trypanosoma cruzi (Tulahuen C2C4 strain) present in the infected rat L6 cells. The L6 cells were cultured in RPMI-1640 medium supplemented with 1% of […] (200 mM) and 10% of fetal calf serum under CO2 concentration of 5%, at 37° C.
A test sample was prepared by dissolving the test compounds according to the present invention and a positive control drug (benznidazole) in DMSO to a predetermined concentration. Culture medium containing the protozoa of 5×10^3 was added into each well of 96-well culture plate and cultured for 48 hours. After the medium was exchanged, the test sample comprising the predetermined amount of the test compound, and DMSO without the test compound were added into each well in duplicate.
After incubation of the culture plate for 96 hours in an incubator, a growth-inhibiting activity was assayed as follows. CPRG/Nonidet (50 μL) was added to each well followed by a further 2˜6-hour culture. The culture plate was then attached to an absorption micro titer plate reader, the absorbance at 540 nm was detected to calculate an infection ratio of the protozoa with respect to a group treated with the test sample and a control group. A growth-inhibiting ratio was then calculated from the resulting infection ratio in accordance with the following equation to determine 50% growth-inhibiting concentration (EC50).
as §1
A selective toxicity coefficient, which is used as an index for the selective toxicity for the protozoa of American trypanosomiasis, was calculated by the following equation, and the pharmaceutical effect was determined.
A selective toxicity coefficient=(EC50 value of the test sample for rat L6 cell)/(EC50 value of the test sample for the protozoa of American trypanosomiasis).

[6] = chloroquine-resistant strain, 72 h culture, 3H-hypoxanthine, read-out: 50% growth-inhibiting concentration (nM) P. falciparum K1
[7] = Table 3, 72 h, Alamar Blue, read-out: 50% growth-inhibiting concentration (nM) cytotoxicity L6

CNc1ccc2nc3ccc(=[N+](C)C)cc-3sc2c1.[Cl-] [Azure B]
EC50 (Plasmodium falciparum W2): 12.7 ± 7.36 nM | Suppression(%) (malaria): 9.1%

CCN(CC)CCCC(C)Nc1ccnc2cc(Cl)ccc12 (stereo not shown) [Chloroquine, reference compound]
EC50 ([1]; Plasmodium falciparum, K1, read-out: 50% growth-inhibiting concentration (nM) P. falciparum K1): 150 nM

CN(C)c1ccc2nc3ccc(=[N+](C)C)cc-3oc2c1.[O-][Cl+3]([O-])([O-])[O-] [Compound A-2]
Parasitaemia suppression (%) ([2]; 5 mg/kg/day intraperitoneal): 45.9%

CC[N+](CC)=c1ccc2nc3ccc(N(C)C)cc3oc-2c1.[O-][Cl+3]([O-])([O-])[O-] [Compound A-5]
Parasitaemia suppression (%) ([2]; 5 mg/kg/day intraperitoneal): 77.0%

CCN(C)c1ccc2nc3ccc(N(C)C)cc3[o+]c2c1.[O-][Cl+3]([O-])([O-])[O-] [Compound A-9, 3-ethylmethylamino-7-dimethylamino phenoxazinium perchlorate]
Cure rate (%) ([2]; 5 mg/kg/day intraperitoneal): 71.7%

CN(C)c1ccc2nc3ccc(N4CCNCC4)cc3[o+]c2c1.Cl.[Cl-] [Compound A-11, 3-dimethylamino-7-(1-piperazino) phenoxazinium chloride mono-hydrochloride salt]
EC50 [1, 6]: 27.5 nM | EC50 [3]: 63800 nM | Parasitaemia suppression (%) ([2]; 5 mg/kg/day intraperitoneal): 54.8% | Parasitaemia suppression (%) ([2]; Table 5, 5.0 mg/kg/day intraperitoneal): 54.8% | Parasitaemia suppression (%) ([2]; Table 5, 10 mg/kg/day intraperitoneal): 78.5% | Parasitaemia suppression (%) ([2]; Table 5, 20 mg/kg/day intraperitoneal): 98.1% | Parasitaemia suppression (%) ([2]; Table 5, 30 mg/kg/day intraperitoneal): >99.99%

CN1CCN(c2cc(O)c3nc4ccc(=[N+](C)C)cc-4oc3c2)CC1.Cl.[Cl-] [Compound A-14]
EC50 [1, 6]: 196 nM | EC50 [3, 7]: 86400 nM | Parasitaemia suppression (%) ([2]; 5 mg/kg/day intraperitoneal): 17.4%

C[N+](C)=c1ccc2nc3c(O)cc(N4CCN(CCO)CC4)cc3oc-2c1 [Compound A-15]
EC50 [1, 6]: 191 nM | EC50 [3, 7]: 74600 nM

CCOC(=O)N1CCN(c2cc(O)c3nc4ccc(=[N+](C)C)cc-4oc3c2)CC1.[Cl-] [Compound A-17]
Parasitaemia suppression (%) ([2]; 5 mg/kg/day intraperitoneal): 38.6%

CC(=O)Oc1cc(N2CCN(C)CC2)cc2oc3cc(=[N+](C)C)ccc-3nc12.Cl.[Cl-] [Compound A-19]
Parasitaemia suppression (%) ([2]; 5 mg/kg/day intraperitoneal): 21.4%

C[N+](C)=c1ccc2nc3c(C(=O)O)cc(O)c(O)c3oc-2c1.[Cl-] [Gallocyanine]
EC50 (Plasmodium falciparum W2): 674 ± 159 nM | Suppression(%) (malaria): 15.6%

CN(C)c1ccc2nc3ccc(=[N+](C)C)cc-3sc2c1.[Cl-] [Methylene Blue]
EC50 (Plasmodium falciparum W2): 3.99 ± 2.31 nM | Suppression(%) (malaria): 15.9%

CCCCCCCCCCCCCCCCOP(=O)([O-])OCC[N+](C)(C)C [Miltefosine, reference compound]
EC50 [4]: 280 nM

Cc1cc2nc3cc(C)c(N)cc3[n+](-c3ccccc3)c2cc1N.[Cl-] [Safranine O]
EC50 (Plasmodium falciparum W2): 34.8 ± 17.2 nM | Suppression(%) (malaria): 14.0%

O=C(Cn1ccnc1[N+](=O)[O-])NCc1ccccc1 [benznidazole, reference compound]
EC50 [5]: 870 nM

Source: patent publication US20090036437A1, “PHARMACEUTICAL COMPOSITION COMPRISING PHENOXAZINIUM COMPOUND AS AN ACTIVE INGREDIENT” (priority 2005, published 2009)
